Test results as given in PubChem BioAssay (NCI).
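1) Cells in 96-well plates. 2) Compound, 48 h, 5 concentrations. 3) Linear interpolation between surrounding doses. 4) Unreached endpoint = highest concentration. The concentration for full growth arrest is given as TGI.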

Columns and labels:
Test in all cases: DTP human tumour cell line panel, 48 h
[1] = test system: SK-OV-3 ovarian
[2] = test system: SK-MEL-2 melanoma
[3] = test system: SNB-19 CNS
[4] = test system: DU-145 prostate
[5] = test system: SN12C renal
[6] = test system: HS 578T breast
[7] = test system: HOP-92 NSCLC
[8] = test system: HOP-62 NSCLC
[9] = test system: NCI-H522 lung
[10] = test system: SF-268 CNS
[11] = test system: NCI-H23 lung
[12] = test system: M14 melanoma
[13] = test system: PC-3 prostate
[14] = test system: RPMI-8226 leukemia
[15] = test system: ACHN renal
[16] = test system: SF-295 CNS
[17] = test system: A549 NSCLC
[18] = test system: K-562 leukemia
[19] = test system: SW-620 colon
[20] = test system: HCT-15 colon
[21] = test system: HL-60(TB) leukemia
[22] = test system: T-47D breast
[23] = test system: MCF7 breast
[24] = test system: A498 renal
[25] = test system: EKVX NSCLC
[26] = test system: HCT-116 colon
[27] = test system: MDA-MB-435
[28] = test system: NCI-H460 lung
[29] = test system: SK-MEL-5 melanoma
[30] = test system: SK-MEL-28 melanoma
[31] = test system: UACC-62 melanoma
[32] = test system: HCC-2998 colon
[33] = test system: BT-549 breast
[34] = test system: COLO 205 colon
[35] = test system: MDA-MB-231 breast
[36] = test system: 786-0 renal
[37] = test system: OVCAR-3 ovarian
[38] = test system: MOLT-4 leukemia
[39] = test system: TK-10 renal
[40] = test system: CAKI-1 renal
[41] = test system: KM12 colon
[42] = test system: IGROV1 ovarian
[43] = test system: U251 CNS
[44] = test system: SNB-75 CNS
[45] = test system: LOX IMVI melanoma
[46] = test system: OVCAR-4 ovarian
[47] = test system: UACC-257 melanoma
[48] = test system: OVCAR-5 ovarian
[49] = test system: MDA-N
[50] = test system: SF-539 CNS
[51] = test system: UO-31 renal
[52] = test system: SR leukemia
[53] = test system: NCI-H226 lung
[54] = test system: OVCAR-8 ovarian
[55] = test system: RXF 393 renal
[56] = test system: HT29 colon
[57] = test system: NCI/ADR-RES ovarian
[58] = test system: CCRF-CEM leukemia
[59] = test system: MALME-3M melanoma

Compound: COc1cc2c(cc1-c1coc3cc(OCC=C(C)C)ccc3c1=O)OCO2
- TGI [1]: > 100 µM
- TGI [2]: > 100 µM
- TGI [3]: > 100 µM
- TGI [4]: > 100 µM
- TGI [5]: > 100 µM
- TGI [6]: > 100 µM
- TGI [7]: > 100 µM
- TGI [8]: 89.1 µM
- TGI [9]: 48.9 µM
- TGI [10]: > 100 µM
- TGI [11]: > 100 µM
- TGI [12]: > 100 µM
- TGI [13]: > 100 µM
- TGI [14]: 66 µM
- TGI [15]: > 100 µM
- TGI [16]: > 100 µM
- TGI [17]: > 100 µM
- TGI [18]: > 100 µM
- TGI [19]: > 100 µM
- TGI [20]: 32.8 µM
- TGI [21]: 35.7 µM
- TGI [22]: > 100 µM
- TGI [23]: > 100 µM
- TGI [24]: > 100 µM
- TGI [25]: > 100 µM
- TGI [26]: 51.4 µM
- TGI [27]: > 100 µM
- TGI [28]: 35.1 µM
- TGI [29]: 36.9 µM
- TGI [30]: > 100 µM
- TGI [31]: > 100 µM
- TGI [32]: 44.8 µM
- TGI [33]: 48.4 µM
- TGI [34]: > 100 µM
- TGI [35]: 65.6 µM
- TGI [36]: 61.8 µM
- TGI [37]: > 100 µM
- TGI [38]: 45.2 µM
- TGI [39]: > 100 µM
- TGI [40]: 58.5 µM
- TGI [41]: 52.4 µM
- TGI [42]: > 100 µM
- TGI [43]: > 100 µM
- TGI [44]: > 100 µM
- TGI [45]: 93.9 µM
- TGI [46]: > 100 µM
- TGI [47]: > 100 µM
- TGI [48]: > 100 µM
- TGI [49]: 28.5 µM
- TGI [50]: > 100 µM
- TGI [51]: > 100 µM
- TGI [52]: 33.3 µM

Compound: Oc1ccc(Cl)cc1C1=N/C(=N\C/N=C2\N=C(c3cc(Cl)ccc3O)CC(c3ccccc3)N2)NC(c2ccccc2)C1 (stereo unspecified)
- TGI [53]: > 100 µM
- TGI [1]: > 100 µM
- TGI [2]: > 100 µM
- TGI [3]: > 100 µM
- TGI [4]: > 100 µM
- TGI [54]: > 100 µM
- TGI [7]: > 100 µM
- TGI [8]: > 100 µM
- TGI [55]: > 100 µM
- TGI [10]: > 100 µM
- TGI [11]: > 100 µM
- TGI [12]: > 100 µM
- TGI [13]: > 100 µM
- TGI [14]: > 100 µM
- TGI [15]: > 100 µM
- TGI [16]: > 100 µM
- TGI [17]: > 100 µM
- TGI [18]: > 100 µM
- TGI [19]: > 100 µM
- TGI [20]: > 100 µM
- TGI [21]: > 100 µM
- TGI [56]: > 100 µM
- TGI [23]: > 100 µM
- TGI [24]: > 100 µM
- TGI [25]: > 100 µM
- TGI [26]: > 100 µM
- TGI [27]: > 100 µM
- TGI [28]: > 100 µM
- TGI [29]: > 100 µM
- TGI [30]: > 100 µM
- TGI [31]: > 100 µM
- TGI [57]: > 100 µM
- TGI [32]: > 100 µM
- TGI [33]: > 100 µM
- TGI [34]: > 100 µM
- TGI [35]: > 100 µM
- TGI [36]: > 100 µM
- TGI [37]: > 100 µM
- TGI [39]: > 100 µM
- TGI [40]: > 100 µM
- TGI [41]: > 100 µM
- TGI [42]: > 100 µM
- TGI [43]: > 100 µM
- TGI [44]: > 100 µM
- TGI [45]: > 100 µM
- TGI [46]: > 100 µM
- TGI [47]: > 100 µM
- TGI [48]: > 100 µM
- TGI [49]: > 100 µM
- TGI [50]: > 100 µM
- TGI [51]: > 100 µM
- TGI [58]: > 100 µM
- TGI [52]: > 100 µM

Compound: CC(=O)O[C@H]1CN(S(=O)(=O)c2ccc(C)cc2)C[C@@H]1C1CCCCC1
- TGI [53]: 48.9 µM
- TGI [1]: > 100 µM
- TGI [2]: 37.7 µM
- TGI [3]: > 100 µM
- TGI [4]: > 100 µM
- TGI [54]: 73.2 µM
- TGI [6]: 37.8 µM
- TGI [7]: 82.4 µM
- TGI [8]: > 100 µM
- TGI [10]: 90.8 µM
- TGI [11]: > 100 µM
- TGI [12]: 37.3 µM
- TGI [13]: 58.5 µM
- TGI [14]: 79.7 µM
- TGI [15]: > 100 µM
- TGI [16]: 32 µM
- TGI [18]: > 100 µM
- TGI [19]: > 100 µM
- TGI [20]: > 100 µM
- TGI [56]: 84.7 µM
- TGI [22]: > 100 µM
- TGI [23]: 42.6 µM
- TGI [24]: > 100 µM
- TGI [25]: 52.8 µM
- TGI [27]: 70.5 µM
- TGI [28]: > 100 µM
- TGI [29]: 31.9 µM
- TGI [30]: 59 µM
- TGI [31]: 61.7 µM
- TGI [57]: 58.5 µM
- TGI [32]: > 100 µM
- TGI [34]: > 100 µM
- TGI [35]: 82.7 µM
- TGI [37]: 43.5 µM
- TGI [38]: 62.7 µM
- TGI [39]: 72.2 µM
- TGI [40]: 83.7 µM
- TGI [41]: 36.3 µM
- TGI [42]: 40.9 µM
- TGI [43]: > 100 µM
- TGI [44]: 63.1 µM
- TGI [45]: 49.2 µM
- TGI [46]: > 100 µM
- TGI [47]: 48.3 µM
- TGI [48]: > 100 µM
- TGI [49]: > 100 µM
- TGI [50]: 10.5 µM
- TGI [51]: > 100 µM
- TGI [58]: > 100 µM
- TGI [52]: > 100 µM

Compound: CC1=C(Cl)C[C@@H](/C(C)=C\Cl)O[C@@]1(O)C(Br)Br
- TGI [1]: > 100 µM
- TGI [2]: 73.8 µM
- TGI [3]: > 100 µM
- TGI [4]: 49.9 µM
- TGI [54]: > 100 µM
- TGI [59]: 79.8 µM
- TGI [5]: 37.2 µM
- TGI [6]: > 100 µM
- TGI [7]: 53.2 µM
- TGI [8]: > 100 µM
- TGI [9]: 49.3 µM
- TGI [55]: 62.2 µM
- TGI [10]: > 100 µM
- TGI [11]: > 100 µM
- TGI [12]: 67.7 µM
- TGI [13]: > 100 µM
- TGI [14]: 65.8 µM
- TGI [15]: 75 µM
- TGI [16]: > 100 µM
- TGI [17]: 60.3 µM
- TGI [18]: > 100 µM
- TGI [19]: > 100 µM
- TGI [20]: 32.4 µM
- TGI [21]: 38.1 µM
- TGI [56]: > 100 µM
- TGI [23]: 49.3 µM
- TGI [24]: 98.4 µM
- TGI [25]: 80.3 µM
- TGI [26]: > 100 µM
- TGI [27]: > 100 µM
- TGI [28]: > 100 µM
- TGI [29]: 54.9 µM
- TGI [30]: > 100 µM
- TGI [31]: > 100 µM
- TGI [32]: 99.6 µM
- TGI [33]: 79.6 µM
- TGI [34]: 88.5 µM
- TGI [35]: 41.7 µM
- TGI [36]: > 100 µM
- TGI [37]: 31.3 µM
- TGI [38]: > 100 µM
- TGI [39]: > 100 µM
- TGI [40]: 35.4 µM
- TGI [41]: > 100 µM
- TGI [42]: > 100 µM
- TGI [43]: > 100 µM
- TGI [44]: > 100 µM
- TGI [45]: > 100 µM
- TGI [46]: > 100 µM
- TGI [47]: > 100 µM
- TGI [48]: 44.2 µM
- TGI [49]: 41.8 µM
- TGI [50]: > 100 µM
- TGI [51]: 72.7 µM
- TGI [58]: 57.5 µM
- TGI [52]: 84.6 µM
